Data as given in EP2857388A1, “Azoles containing sulfone” (Grünenthal GmbH, priority 2013, dated 2015).

The molecules below were run against T1, human B1R (Homo sapiens, UniProt P46663) (assay: Functional assay at bradykinin receptor 1 (B1R): Ca2+ fluorescence (Fluo-4) in FLIPR/Novostar, antagonist mode). Conditions: test substance 10 µM; CHO K1 cells stably transfected with human B1R gene (hB1R-Zellen); agonist Lys-Des-Arg9-Bradykinin at EC80; % inhibition relative to maximal achievable inhibition; read-out: % Inhibierung (human B1R) bei 10 µM.
T1 construct: expressed in transfected cells; host or cells: CHO K1 cells (Chinese Hamster Ovary), stably transfected
T1 sequence (P46663 1-353): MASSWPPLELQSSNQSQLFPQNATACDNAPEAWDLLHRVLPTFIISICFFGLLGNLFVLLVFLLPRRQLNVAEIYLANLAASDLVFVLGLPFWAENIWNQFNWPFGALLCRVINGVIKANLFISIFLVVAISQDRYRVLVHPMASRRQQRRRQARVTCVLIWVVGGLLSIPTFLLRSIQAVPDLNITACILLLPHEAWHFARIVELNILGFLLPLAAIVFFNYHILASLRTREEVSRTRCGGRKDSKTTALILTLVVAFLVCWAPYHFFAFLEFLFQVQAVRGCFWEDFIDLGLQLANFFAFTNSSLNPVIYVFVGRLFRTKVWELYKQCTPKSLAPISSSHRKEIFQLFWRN
Format: cell-based
Summary of the method: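 CHO K1 cells stably expressing human B1R were loaded with Fluo-4 and preincubated 6–20 min with test compound before Lys-Des-Arg9-bradykinin at its EC80. Peak fluorescence (ex 488/em 540 nm) gave % inhibition versus maximal inhibition; IC50 from several concentrations, n=2 or 3.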
`COc1cc(C)c(S(=O)(=O)Cc2noc(C(=O)NC3CCC(N4CCN(C)CC4)CC3(C)C)n2)c(C)c1` (centres unmarked) [SC-16, N-[2,2-Dimethyl-4-(4-methyl-piperazin-1-yl)-cyclohexyl]-3-[[(4-methoxy-2,6-dimethyl-phenyl)-sulfonyl]-methyl]-[1,2,4]oxadiazol-5-carbonsäure amid] gave an inhibition at 10 µM of 99%. Molecule `COc1cc(C)c(S(=O)(=O)Cc2noc(C(=O)NC3CCC(c4ccncc4)CC3)n2)c(C)c1` (centres unmarked) [SC-18, 3-[[(4-Methoxy-2,6-dimethyl-phenyl)sulfonyl]-methyl]-N-(4-pyridin-4-yl-cyclohexyl)-[1,2,4]oxadiazol-5-carbonsäure amid] has an inhibition at 10 µM of 97%. Work on `COc1cc(C)c(S(=O)(=O)Cc2noc(C(=O)NC3CCC(Cc4ccncc4)CC3)n2)c(C)c1` (centres unmarked) [SC-19, 3-[[(4-Methoxy-2,6-dimethyl-phenyl)sulfonyl]-methyl]-N-[4-(pyridin-4-yl-methyl)-cyclohexyl]-[1,2,4]oxadiazol-5-carbonsäure amid] yielded an inhibition at 10 µM of 99%. Work on `COc1cc(C)c(S(=O)(=O)Cc2noc(CC(=O)N(C)C3CCN(C4CCC(C)CC4)CC3)n2)c(C)c1` (centres unmarked) [SC-20, 2-[3-[[(4-Methoxy-2,6-dimethyl-phenyl)sulfonyl]-methyl]-[1,2,4]oxadiazol-5-yl]-N-methyl-N-[1-(4-methyl-cyclohexyl)-piperidin-4-yl]-acetamid] yielded an inhibition at 10 µM of 100%. Work on `COc1cc(C)c(S(=O)(=O)Cc2noc(CC(=O)N(C)C3CCN(C4CCOCC4)CC3)n2)c(C)c1` [SC-21, 2-[3-[[(4-Methoxy-2,6-dimethyl-phenyl)sulfonyl]-methyl]-[1,2,4]oxadiazol-5-yl]-N-methyl-N-(1-tetrahydro-pyran-4-yl-piperidin-4-yl)-acetamid] yielded an inhibition at 10 µM of 100%. Molecule `COc1cc(C)c(S(=O)(=O)Cc2noc(CC(=O)N(C3CC3)C3CCN(c4ccncc4)CC3)n2)c(C)c1` [SC-22, N-Cyclopropyl-2-[3-[[(4-methoxy-2,6-dimethyl-phenyl)sulfonyl]-methyl]-[1,2,4]oxadiazol-5-yl]-N-(1-pyridin-4-yl-piperidin-4-yl)-acetamid] has an inhibition at 10 µM of 100%. Molecule `COc1cc(C)c(S(=O)(=O)Cc2noc(CC(=O)N(C)C3CCN(C(=O)c4ccncc4)CC3)n2)c(C)c1` [SC-27, 2-[3-[[(4-Methoxy-2,6-dimethyl-phenyl)sulfonyl]-methyl]-[1,2,4]oxadiazol-5-yl]-N-methyl-N-[1-(pyridin-4-carbonyl)-piperidin-4-yl]-acetamid] has an inhibition at 10 µM of 98%. In the case of `COc1cc(C)c(S(=O)(=O)Cc2noc(C(=O)NCC3CCC(c4ccncc4)CC3)n2)c(C)c1` (centres unmarked) [SC-30, 3-[[(4-Methoxy-2,6-dimethyl-phenyl)sulfonyl]-methyl]-N-[(4-pyridin-4-yl-cyclohexyl)-methyl]-[1,2,4]oxadiazol-5-carbonsäure amid], the inhibition at 10 µM is reported as 98%. Work on `COc1cc(C)c(S(=O)(=O)Cc2noc(C(=O)NC3CCC(c4ccncc4)CC3(C)C)n2)c(C)c1` (centres unmarked) [SC-31, N-(2,2-Dimethyl-4-pyridin-4-yl-cyclohexyl)-3-[[(4-methoxy-2,6-dimethyl-phenyl)sulfonyl]-methyl]-[1,2,4]oxadiazol-5-carbonsäure amid] yielded an inhibition at 10 µM of 97%. Molecule `COc1cc(C)c(S(=O)(=O)Cc2noc(CC(=O)NC3CCC(c4ccncc4)CC3(C)C)n2)c(C)c1` (centres unmarked) [SC-32, N-(2,2-Dimethyl-4-pyridin-4-yl-cyclohexyl)-2-[3-[[(4-methoxy-2,6-dimethyl-phenyl)sulfonyl]-methyl]-[1,2,4]oxadiazol-5-yl]-acetamid] has an inhibition at 10 µM of 98%. For `COc1cc(C)c(S(=O)(=O)Cc2noc(CC(=O)N(C)C3CCC4(CCN(C)CC4)CC3(C)C)n2)c(C)c1` (centres unmarked) [SC-33, 2-[3-[[(4-Methoxy-2,6-dimethyl-phenyl)sulfonyl]-methyl]-[1,2,4]oxadiazol-5-yl]-N-methyl-N-(4,4,9-trimethyl-9-azaspiro[5.5]undecan-3-yl)-acetamid], the inhibition at 10 µM was 100%. In the case of `COc1cc(C)c(S(=O)(=O)Cc2noc(CC(=O)NC3CCC(O)CC3(C)C)n2)c(C)c1` (centres unmarked) [SC-35, N-(4-Hydroxy-2,2-dimethyl-cyclohexyl)-2-[3-[[(4-methoxy-2,6-dimethyl-phenyl)sulfonyl]-methyl]-[1,2,4]oxadiazol-5-yl]-acetamid], the inhibition at 10 µM is reported as 100%. Molecule `COc1cc(C)c(S(=O)(=O)Cc2noc(CC(=O)NC3CCOCC3(C)C)n2)c(C)c1` (centres unmarked) [SC-36, N-(3,3-Dimethyl-tetrahydro-pyran-4-yl)-2-[3-[[(4-methoxy-2,6-dimethyl-phenyl)sulfonyl]-methyl]-[1,2,4]oxadiazol-5-yl]-acetamid] has an inhibition at 10 µM of 98%. `COc1cc(C)c(S(=O)(=O)Cc2noc(CC(=O)NC3CCC(c4ccncc4)CC3)n2)c(C)c1` (centres unmarked) [SC-37, 2-[3-[[(4-Methoxy-2,6-dimethyl-phenyl)sulfonyl]-methyl]-[1,2,4]oxadiazol-5-yl]-N-(4-pyridin-4-yl-cyclohexyl)-acetamid] was tested, and the inhibition at 10 µM was 100%. With `COc1cc(C)c(S(=O)(=O)Cc2noc(CC(=O)NC3CCN(C4CCOCC4)CC3(C)C)n2)c(C)c1` (centres unmarked) [SC-39, N-(3,3-Dimethyl-1-tetrahydro-pyran-4-yl-piperidin-4-yl)-2-[3-[[(4-methoxy-2,6-dimethyl-phenyl)sulfonyl]-methyl]-[1,2,4]oxadiazol-5-yl]-acetamid] the inhibition at 10 µM was 100%. For `COc1cc(C)c(S(=O)(=O)Cc2noc(CC(=O)NC3CCC(c4ccnc(OC)c4)CC3(C)C)n2)c(C)c1` (centres unmarked) [SC-40, 2-[3-[[(4-Methoxy-2,6-dimethyl-phenyl)sulfonyl]-methyl]-[1,2,4]oxadiazol-5-yl]-N-[4-(2-methoxy-pyridin-4-yl)-2,2-dimethyl-cyclohexyl]-acetamid], the inhibition at 10 µM was 100%. `COc1cc(C)c(S(=O)(=O)Cc2noc(CC(=O)N3CCC(c4ccncc4)CC3)n2)c(C)c1` [SC-41, 2-[3-[[(4-Methoxy-2,6-dimethyl-phenyl)sulfonyl]-methyl]-[1,2,4]oxadiazol-5-yl]-1-(4-pyridin-4-yl-piperidin-1-yl)-ethanon] was tested, and the inhibition at 10 µM was 97%. `COc1cc(C)c(S(=O)(=O)Cc2noc(CC(=O)N(C)C3CCN(c4cc(C)nc(C)n4)CC3)n2)c(C)c1` [SC-42, N-[1-(2,6-Dimethyl-pyrimidin-4-yl)-piperidin-4-yl]-2-[3-[[(4-methoxy-2,6-dimethyl-phenyl)sulfonyl]-methyl]-[1,2,4]oxadiazol-5-yl]-N-methyl-acetamid] gave an inhibition at 10 µM of 99%. `COc1cc(C)c(S(=O)(=O)Cc2noc(C(=O)N(C)[C@H]3CCC[C@@H](N4CCN(C)CC4)C3)n2)c(C)c1` [SC-43, 3-[[(4-Methoxy-2,6-dimethyl-phenyl)sulfonyl]-methyl]-N-methyl-N-[(1S,3R)-3-(4-methyl-piperazin-1-yl)-cyclohexyl]-[1,2,4]oxadiazol-5-carbonsäure amid] showed an inhibition at 10 µM of 100%. For `COc1cc(C)c(S(=O)(=O)Cc2noc(CC(=O)N(C)[C@H]3CCC[C@@H](N4CCN(C)CC4)C3)n2)c(C)c1` [SC-44, 2-[3-[[(4-Methoxy-2,6-dimethyl-phenyl)sulfonyl]-methyl]-[1,2,4]oxadiazol-5-yl]-N-methyl-N-[(1S,3R)-3-(4-methyl-piperazin-1-yl)-cyclohexyl]-acetamid], the inhibition at 10 µM was 100%. Molecule `COc1cc(C)c(S(=O)(=O)Cc2noc(CC(=O)N(C)C3CCN(C(=O)CCN4CCCCC4)CC3)n2)c(C)c1` [SC-46, 2-[3-[[(4-Methoxy-2,6-dimethyl-phenyl)sulfonyl]-methyl]-[1,2,4]oxadiazol-5-yl]-N-methyl-N-[1-(3-piperidin-1-yl-propanoyl)-piperidin-4-yl]-acetamid] has an inhibition at 10 µM of 100%. `Cc1cccc(Cl)c1S(=O)(=O)Cc1noc(C(=O)N(C)[C@H]2CCC[C@@H](N3CCN(C)CC3)C2)n1` [SC-49, 3-[[(2-Chlor-6-methyl-phenyl)sulfonyl]-methyl]-N-methyl-N-[(1S,3R)-3-(4-methyl-piperazin-1-yl)-cyclohexyl]-[1,2,4]oxadiazol-5-carbonsäure amid] was tested, and the inhibition at 10 µM was 99%. Molecule `Cc1cccc(Cl)c1S(=O)(=O)Cc1noc(CC(=O)N(C)[C@H]2CCC[C@@H](N3CCN(C)CC3)C2)n1` [SC-50, 2-[3-[[(2-Chlor-6-methyl-phenyl)sulfonyl]-methyl]-[1,2,4]oxadiazol-5-yl]-N-methyl-N-[(1S,3R)-3-(4-methyl-piperazin-1-yl)-cyclohexyl]-acetamid] has an inhibition at 10 µM of 89%. `COc1cc(C)c(S(=O)(=O)Cc2noc(CC(=O)N3CCN(Cc4ccc(OC)nc4)CC3)n2)c(C)c1` [SC-51, 2-[3-[[(4-Methoxy-2,6-dimethyl-phenyl)sulfonyl]-methyl]-[1,2,4]oxadiazol-5-yl]-1-[4-[(6-methoxy-pyridin-3-yl)-methyl]-piperazin-1-yl]-ethanon] showed an inhibition at 10 µM of 100%. Work on `COc1cc(C)c(S(=O)(=O)Cc2noc(CC(=O)N3CCN(Cc4ccnc(N5CCCC5)c4)CC3)n2)c(C)c1` [SC-52, 2-[3-[[(4-Methoxy-2,6-dimethyl-phenyl)sulfonyl]-methyl]-[1,2,4]oxadiazol-5-yl]-1-[4-[(2-pyrrolidin-1-yl-pyridin-4-yl)-methyl]-piperazin-1-yl]-ethanon] yielded an inhibition at 10 µM of 100%. `COc1cc(C)c(S(=O)(=O)Cc2noc(CC(=O)N(C)C3CCN(Cc4ccc(OC)nc4)CC3)n2)c(C)c1` [SC-55, 2-[3-[[(4-Methoxy-2,6-dimethyl-phenyl)sulfonyl]-methyl]-[1,2,4]oxadiazol-5-yl]-N-[1-[(6-methoxy-pyridin-3-yl)-methyl]-piperidin-4-yl]-N-methyl-acetamid] gave an inhibition at 10 µM of 100%.
